Reference: ChEMBL document CHEMBL2440076, “New triarylpyrazoles as broad-spectrum anticancer agents: design, synthesis, and biological evaluation” (Eur J Med Chem, 2013)

Legend:
[1] = test system: SW-620; assay: Growth inhibition of human SW620 cells assessed as cell growth at 5X10'-7 M after 48 hrs by sulforhodamine B assay; type: functional; conditions: SW-620, 48 h, read-out: Activity
[2] = test system: MDA-MB-468; assay: Growth inhibition of human MDA-MB-468 cells assessed as cell growth at 5X10'-6 M after 48 hrs by sulforhodamine B assay; type: functional; conditions: MDA-MB-468, 48 h, read-out: Activity
[3] = test system: HOP-92; assay: Growth inhibition of human HOP92 cells assessed as cell growth at 5X10'-7 M after 48 hrs by sulforhodamine B assay; type: functional; conditions: HOP-92, 48 h, read-out: Activity
[4] = test system: SW-620; assay: Growth inhibition of human SW620 cells assessed as cell growth at 5X10'-8 M after 48 hrs by sulforhodamine B assay; type: functional; conditions: SW-620, 48 h, read-out: Activity
[5] = test system: SK-MEL-5; assay: Growth inhibition of human SK-MEL-5 cells after 48 hrs by sulforhodamine B assay; type: functional; conditions: SK-MEL-5, 48 h
[6] = test system: UACC-257; assay: Growth inhibition of human UACC257 cells assessed as cell growth at 10 uM after 48 hrs by sulforhodamine B assay; type: functional; conditions: UACC-257, 48 h, read-out: Activity
[7] = test system: RXF 393; assay: Growth inhibition of human RXF393 cells assessed as cell growth at 5X10'-5 M after 48 hrs by sulforhodamine B assay; type: functional; conditions: RXF 393, 48 h, read-out: Activity
[8] = test system: OVCAR-3; assay: Growth inhibition of human OVCAR3 cells after 48 hrs by sulforhodamine B assay; type: functional, cell-based; conditions: OVCAR-3, 48 h; for CC50: read-out: LC50 (the source's name)
[9] = test system: KM12; assay: Growth inhibition of human KM12 cells assessed as cell growth at 5X10'-5 M after 48 hrs by sulforhodamine B assay; type: functional; conditions: KM12, 48 h, read-out: Activity
[10] = test system: U-251; assay: Growth inhibition of human U251 cells assessed as cell growth at 5X10'-6 M after 48 hrs by sulforhodamine B assay; type: functional; conditions: U-251, 48 h, read-out: Activity
[11] = test system: SK-MEL-28; assay: Growth inhibition of human SK-MEL-28 cells assessed as cell growth at 10 uM after 48 hrs by sulforhodamine B assay; type: functional; conditions: SK-MEL-28, 48 h, read-out: Activity
[12] = test system: K562; assay: Growth inhibition of human K562 cells assessed as cell growth at 5X10'-9 M after 48 hrs by sulforhodamine B assay; type: functional; conditions: K562, 48 h, read-out: Activity
[13] = test system: HOP-92; assay: Growth inhibition of human HOP92 cells assessed as cell growth at 5X10'-8 M after 48 hrs by sulforhodamine B assay; type: functional; conditions: HOP-92, 48 h, read-out: Activity
[14] = test system: A549; assay: Growth inhibition of human A549/ATCC cells assessed as cell growth at 5X10'-8 M after 48 hrs by sulforhodamine B assay; type: functional; conditions: A549, 48 h, read-out: Activity
[15] = test system: RPMI-8226; assay: Growth inhibition of human RPMI8226 cells assessed as cell growth at 5X10'-9 M after 48 hrs by sulforhodamine B assay; type: functional; conditions: RPMI-8226, 48 h, read-out: Activity
[16] = test system: MCF7; assay: Growth inhibition of human MCF7 cells after 48 hrs by sulforhodamine B assay; type: functional; conditions: MCF7, 48 h
[17] = test system: UACC-257; assay: Growth inhibition of human UACC257 cells assessed as cell growth at 5X10'-9 M after 48 hrs by sulforhodamine B assay; type: functional; conditions: UACC-257, 48 h, read-out: Activity
[18] = test system: SNB-19; assay: Growth inhibition of human SNB19 cells assessed as cell growth at 5X10'-9 M after 48 hrs by sulforhodamine B assay; type: functional; conditions: SNB-19, 48 h, read-out: Activity
[19] = Growth inhibition of human HCC2998 cells assessed as cell growth at 5X10'-6 M after 48 hrs by sulforhodamine B assay; type: functional; conditions: HCC 2998, 48 h, read-out: Activity
[20] = test system: 786-0; assay: Growth inhibition of human 786-0 cells assessed as cell growth at 5X10'-9 M after 48 hrs by sulforhodamine B assay; type: functional; conditions: 786-0, 48 h, read-out: Activity
[21] = test system: HCT-116; assay: Growth inhibition of human HCT116 cells assessed as cell growth at 5X10'-5 M after 48 hrs by sulforhodamine B assay; type: functional; conditions: HCT-116, 48 h, read-out: Activity
[22] = Growth inhibition of human NCI-ADR-RES cells after 48 hrs by sulforhodamine B assay; type: functional; conditions: for CC50: read-out: LC50 (the source's name)
[23] = test system: MCF7; assay: Growth inhibition of human MCF7 cells assessed as cell growth at 5X10'-8 M after 48 hrs by sulforhodamine B assay; type: functional; conditions: MCF7, 48 h, read-out: Activity
[24] = test system: RPMI-8226; assay: Growth inhibition of human RPMI8226 cells assessed as cell growth at 5X10'-8 M after 48 hrs by sulforhodamine B assay; type: functional; conditions: RPMI-8226, 48 h, read-out: Activity
[25] = test system: OVCAR-3; assay: Growth inhibition of human OVCAR3 cells assessed as cell growth at 5X10'-5 M after 48 hrs by sulforhodamine B assay; type: functional; conditions: OVCAR-3, 48 h, read-out: Activity
[26] = test system: SK-MEL-2; assay: Growth inhibition of human SK-MEL-2 cells after 48 hrs by sulforhodamine B assay; type: functional; conditions: SK-MEL-2, 48 h
[27] = test system: BT-549; assay: Growth inhibition of human BT549 cells assessed as cell growth at 5X10'-6 M after 48 hrs by sulforhodamine B assay; type: functional; conditions: BT-549, 48 h, read-out: Activity
[28] = test system: UACC-62; assay: Growth inhibition of human UACC62 cells assessed as cell growth at 5X10'-9 M after 48 hrs by sulforhodamine B assay; type: functional; conditions: UACC-62, 48 h, read-out: Activity
[29] = test system: ACHN; assay: Growth inhibition of human ACHN cells after 48 hrs by sulforhodamine B assay; type: functional; conditions: for CC50: read-out: LC50 (the source's name)
[30] = Growth inhibition of human HCC2998 cells assessed as cell growth at 10 uM after 48 hrs by sulforhodamine B assay; type: functional; conditions: HCC 2998, 48 h, read-out: Activity
[31] = test system: OVCAR-4; assay: Growth inhibition of human OVCAR4 cells assessed as cell growth at 10 uM after 48 hrs by sulforhodamine B assay; type: functional; conditions: OVCAR-4, 48 h, read-out: Activity
[32] = test system: HOP-92; assay: Growth inhibition of human HOP92 cells assessed as cell growth at 10 uM after 48 hrs by sulforhodamine B assay; type: functional; conditions: HOP-92, 48 h, read-out: Activity
[33] = test system: HOP-62; assay: Growth inhibition of human HOP62 cells assessed as cell growth at 10 uM after 48 hrs by sulforhodamine B assay; type: functional; conditions: HOP-62, 48 h, read-out: Activity
[34] = test system: MCF7; assay: Growth inhibition of human MCF7 cells assessed as cell growth at 5X10'-5 M after 48 hrs by sulforhodamine B assay; type: functional; conditions: MCF7, 48 h, read-out: Activity
[35] = test system: IGROV-1; assay: Growth inhibition of human IGROV1 cells assessed as cell growth at 5X10'-9 M after 48 hrs by sulforhodamine B assay; type: functional; conditions: IGROV-1, 48 h, read-out: Activity
[36] = test system: NCI-H226; assay: Growth inhibition of human NCI-H226 cells assessed as cell growth at 5X10'-7 M after 48 hrs by sulforhodamine B assay; type: functional; conditions: NCI-H226, 48 h, read-out: Activity

COc1cc(-c2nn(-c3cccc(NC(=O)c4cccc(C(F)(F)F)c4)c3)cc2-c2ccncc2)ccc1Cl
growth at 0.5 µM [1]: 89%
growth at 5 µM [2]: -4%
growth at 0.5 µM [3]: 53%
growth at 0.05 µM [4]: 98%
GI50 [5]: 0.978 µM
LC50 (concentration killing 50% of cells) [5]: 40.6 µM
TGI [5]: 2.47 µM
growth at 10 µM [6]: 34.5%
growth at 50 µM [7]: -2%
GI50 [8]: 1.2 µM
IC50 [8]: 1.2 µM
TGI [8]: 2.98 µM
CC50 [8]: > 50 µM
growth at 50 µM [9]: 7%
growth at 5 µM [10]: 14%
growth at 10 µM [11]: 32.5%
growth at 0.005 µM [12]: 94%
growth at 0.05 µM [13]: 81%
growth at 0.05 µM [14]: 98%
growth at 0.005 µM [15]: 98%
GI50 [16]: 1.43 µM
LC50 [16]: > 50 µM
TGI [16]: > 50 µM
growth at 0.005 µM [17]: 105%
growth at 0.005 µM [18]: 100%
growth at 5 µM [19]: 21%
growth at 0.005 µM [20]: 95%
growth at 50 µM [21]: 9%
GI50 [22]: 1.09 µM
TGI [22]: 3.17 µM
CC50 [22]: > 50 µM
growth at 0.05 µM [23]: 90%
growth at 0.05 µM [24]: 98%
growth at 50 µM [25]: -38%
GI50 [26]: 1.56 µM
LC50 (50% lethal concentration) [26]: > 50 µM
TGI [26]: > 50 µM
growth at 5 µM [27]: 34%
growth at 0.005 µM [28]: 97%
GI50 [29]: 1.89 µM
TGI [29]: > 50 µM
CC50 [29]: > 50 µM
growth at 10 µM [30]: 0.91%
growth at 10 µM [31]: 46.5%
growth at 10 µM [32]: -5.59%
growth at 10 µM [33]: 22.9%
growth at 50 µM [34]: 9%
growth at 0.005 µM [35]: 102%
growth at 0.5 µM [36]: 84%

O=C(Nc1cccc(-n2cc(-c3ccncc3)c(-c3ccc(Cl)c(O)c3)n2)c1)c1ccc(N2CCOCC2)c(C(F)(F)F)c1
growth at 0.5 µM [1]: 106%
growth at 5 µM [2]: 63%
growth at 0.5 µM [3]: 53%
growth at 0.05 µM [4]: 104%
GI50 [5]: 2.47 µM
LC50 (concentration killing 50% of cells) [5]: 31.8 µM
TGI [5]: 10.2 µM
growth at 10 µM [6]: 38.9%
growth at 50 µM [7]: -37%
GI50 [8]: 4.81 µM
IC50 [8]: 4.81 µM
TGI [8]: > 50 µM
CC50 [8]: > 50 µM
growth at 50 µM [9]: 1%
growth at 5 µM [10]: 16%
growth at 10 µM [11]: 1.14%
growth at 0.005 µM [12]: 96%
growth at 0.05 µM [13]: 78%
growth at 0.05 µM [14]: 101%
growth at 0.005 µM [15]: 98%
GI50 [16]: 2.81 µM
LC50 [16]: > 50 µM
TGI [16]: > 50 µM
growth at 0.005 µM [17]: 100%
growth at 0.005 µM [18]: 97%
growth at 5 µM [19]: 53%
growth at 0.005 µM [20]: 94%
growth at 50 µM [21]: 10%
GI50 [22]: 2.86 µM
TGI [22]: > 50 µM
CC50 [22]: > 50 µM
growth at 0.05 µM [23]: 85%
growth at 0.05 µM [24]: 99%
growth at 50 µM [25]: 11%
GI50 [26]: 2.89 µM
LC50 (50% lethal concentration) [26]: > 50 µM
TGI [26]: 15.3 µM
growth at 5 µM [27]: 70%
growth at 0.005 µM [28]: 98%
GI50 [29]: 1.92 µM
TGI [29]: > 50 µM
CC50 [29]: > 50 µM
growth at 10 µM [30]: 56.4%
growth at 10 µM [31]: 108%
growth at 10 µM [32]: 10.2%
growth at 10 µM [33]: 40.4%
growth at 50 µM [34]: 12%
growth at 0.005 µM [35]: 103%
growth at 0.5 µM [36]: 99%
